According to ChEMBL document CHEMBL1201862, “PubChem BioAssay data set” (2004):
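1) Cells in 96-well plates. 2) Compound, 48 h, 5 concentrations. 3) Linear interpolation between surrounding doses. 4) Unreached endpoint = highest concentration. The concentration for 50% growth inhibition is given as GI50.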 The source made the active and inactive calls. No stated cut-off is given here; in the data, active = GI50 up to about 1.1 µM and inactive = higher. Square brackets hold non-standard residues; d marks the D form. Peptide text beside a SMILES is read from it. * marks the point of attachment. ξ: configuration not given here. NMeN = CN[C@@H](CC(N)=O)C(=O)O; NMeV = CN[C@H](C(=O)O)C(C)C; ξNMeV = CNC(C(=O)O)C(C)C; Boc = CC(C)(C)OC(=O)*; ξNMeA = CNC(C)C(=O)O

What was measured:
Experiment in all cases: DTP human tumour cell line panel, 48 h
[1] = test system: KM-20L2
[2] = test system: DMS-114
[3] = test system: XF498
[4] = test system: LXFL 529
[5] = test system: RXF 631
[6] = test system: DLD-1
[7] = test system: HOP-18
[8] = test system: M19-MEL
[9] = test system: SNB-78

Row | Compound | GI50 [1] | GI50 [2] | GI50 [3] | GI50 [4] | GI50 [5] | GI50 [6] | GI50 [7] | GI50 [8] | GI50 [9]
1 | COC(=O)C1=C(c2ccc(OC)c(OC)c2)OC(c2cc(OC)c(OC)c(OC)c2)C1 (stereo unspecified) | > 100 µM (inactive) | 37.6 µM (inactive) | 24.5 µM (inactive) | 0.711 µM (active) | 94.2 µM (inactive) | 2.12 µM (inactive) | 61.7 µM (inactive) | > 100 µM (inactive) | 22.8 µM (inactive)
2 | COC1=CC23C=CC1[C@@H](c1ccccc1)C2=C(C)C(=O)N3C(=O)NC1CCCCC1 (stereo partly specified) | 22.2 µM (inactive) | – | – | – | – | – | – | – | 26.4 µM (inactive)
3 | O=c1ccn(C2(CO)C=C(CO)C(O)C2O)c(=O)[nH]1 (stereo unspecified) | > 25.7 µM (inactive) | > 25.7 µM (inactive) | – | > 25.7 µM (inactive) | > 25.7 µM (inactive) | > 25.7 µM (inactive) | > 25.7 µM (inactive) | > 25.7 µM (inactive) | > 25.7 µM (inactive)
4 | COc1cc(/C=C2\CCC(C)(CN(C)C)C2=O)cc(OC)c1OC (stereo unspecified) | > 64.9 µM (inactive) | 99.5 µM (inactive) | > 100 µM (inactive) | > 100 µM (inactive) | – | > 89.1 µM (inactive) | > 100 µM (inactive) | > 100 µM (inactive) | > 44.7 µM (inactive)
5 | COC(=O)C1=C(C)N(NC(N)=O)C2(N)N(NC(N)=O)C(C)=C(C(=O)OC)C12C#N (stereo unspecified) | > 100 µM (inactive) | > 100 µM (inactive) | > 100 µM (inactive) | – | > 100 µM (inactive) | > 100 µM (inactive) | > 100 µM (inactive) | > 100 µM (inactive) | > 100 µM (inactive)
6 | O=C1C=C(Nc2ccccc2C(=O)CC(=O)C(=O)Nc2ccc(Cl)c(Cl)c2)c2ccccc2C1=O | – | 18.2 µM (inactive) | – | – | – | 19.7 µM (inactive) | – | 3.98 µM (inactive) | 5.31 µM (inactive)
7 | CC1=NN(C(=O)Cc2ccccc2)C(=O)/C1=C\C=C\c1ccccc1 | – | – | > 100 µM (inactive) | – | – | > 100 µM (inactive) | 14.8 µM (inactive) | – | 83.6 µM (inactive)
8 | COc1ccc(S(=O)(=O)N/N=C/c2cc(I)cc([N+](=O)[O-])c2O)cc1OC | > 100 µM (inactive) | – | 24.1 µM (inactive) | 27 µM (inactive) | 38.8 µM (inactive) | 36.3 µM (inactive) | 21.6 µM (inactive) | 33 µM (inactive) | 24.7 µM (inactive)
9 | CC(C)(C)C1CCC2(CC1)c1[nH]c3ccccc3c1C1(CCC(C(C)(C)C)CC1)c1[nH]c3ccccc3c12 (stereo unspecified) | > 100 µM (inactive) | 25.9 µM (inactive) | > 100 µM (inactive) | > 100 µM (inactive) | – | > 100 µM (inactive) | > 100 µM (inactive) | > 100 µM (inactive) | > 100 µM (inactive)
10 | C1CCN(C2OC3C(COC3N3CCCCC3)OC2OC2CCO[C@@H]2N2CCCCC2)CC1 (stereo partly specified) | > 100 µM (inactive) | 14.3 µM (inactive) | 15.8 µM (inactive) | 17.3 µM (inactive) | – | 38.8 µM (inactive) | – | – | 8.26 µM (inactive)
11 | N#Cc1cccc(/C=N/C23CC4CC(CC(C4)C2)C3)c1 | > 100 µM (inactive) | > 100 µM (inactive) | – | – | – | – | – | > 100 µM (inactive) | > 100 µM (inactive)
12 | C=C(CCCCCCCCC)CC(=O)SCCNC(=O)CCNC(=O)C(O)C(C)(C)COP(=O)(O)OP(=O)(O)OCC1OC(n2cnc3c(N)ncnc32)C(O)C1OP(=O)(O)O (stereo unspecified) | > 100 µM (inactive) | 55.3 µM (inactive) | 50 µM (inactive) | 56.2 µM (inactive) | 55.2 µM (inactive) | 42.9 µM (inactive) | 29.4 µM (inactive) | 29.8 µM (inactive) | 25.5 µM (inactive)
13 | COC(=O)C(C)N(C)C(=O)[C@H](CC(N)=O)N(C)C(=O)[C@@H]1CCCN1C(=O)[C@H](C(C)C)N(C)C(=O)C(C(C)C)N(C)C(=O)[C@@H](NC(=O)OC(C)(C)C)C(C)C (stereo partly specified) (Boc-V[ξNMeV][NMeV]P[NMeN][ξNMeA]-OMe) | > 100 µM (inactive) | – | > 100 µM (inactive) | > 100 µM (inactive) | – | 37 µM (inactive) | > 100 µM (inactive) | > 100 µM (inactive) | > 100 µM (inactive)
14 | CC1(C)CCc2cc3c(cc2O1)OC(C)(C)C1c2c(ccc4c2CCC(C)(C)O4)OC31 (stereo unspecified) | – | 98.4 µM (inactive) | > 100 µM (inactive) | > 100 µM (inactive) | – | > 100 µM (inactive) | < 0.01 µM (active) | > 100 µM (inactive) | > 100 µM (inactive)
15 | CC1CC(c2ccc([N+](=O)[O-])cc2)=Nc2ccccc2S1 (stereo unspecified) | 18.4 µM (inactive) | 17.4 µM (inactive) | 31.6 µM (inactive) | 13.3 µM (inactive) | – | 12.9 µM (inactive) | > 100 µM (inactive) | 13.8 µM (inactive) | 67.5 µM (inactive)
16 | CON1C(=O)C2(CCCCC2)C(=O)C12C=CC(C)CC2 (stereo unspecified) | > 100 µM (inactive) | 46.7 µM (inactive) | > 100 µM (inactive) | > 100 µM (inactive) | > 100 µM (inactive) | – | – | > 100 µM (inactive) | > 100 µM (inactive)
17 | CCOC(=O)c1cnc2oc(-c3ccc(OC)cc3)nn2c1=O | > 100 µM (inactive) | > 100 µM (inactive) | – | > 100 µM (inactive) | – | – | – | > 100 µM (inactive) | > 100 µM (inactive)
18 | COc1ccc2c([nH]c3c(O)c(-c4c(C)cc5c([nH]c6c(CC=C(C)C)c(OC)ccc65)c4O)c(C)cc32)c1CC=C(C)C [BISMURRAYAFOLINE B] | > 100 µM (inactive) | > 100 µM (inactive) | – | > 100 µM (inactive) | – | > 100 µM (inactive) | > 100 µM (inactive) | > 100 µM (inactive) | > 100 µM (inactive)
19 | Nc1ncnc2c1ncn2CC(O)CO (stereo unspecified) | – | > 100 µM (inactive) | – | > 100 µM (inactive) | > 100 µM (inactive) | > 100 µM (inactive) | > 100 µM (inactive) | > 100 µM (inactive) | > 100 µM (inactive)
20 | CCCCCCCCCCCC(=O)OCC1OC(n2cc(F)c(=O)[nH]c2=O)C(N)C(O)C1O (stereo unspecified) | 91.4 µM (inactive) | > 100 µM (inactive) | – | > 100 µM (inactive) | – | 71.8 µM (inactive) | 88.9 µM (inactive) | > 100 µM (inactive) | > 100 µM (inactive)
21 | S=c1nc2c(c[nH]1)C1c3ccccc3C2c2ccccc21 | > 100 µM (inactive) | 62.2 µM (inactive) | – | > 100 µM (inactive) | – | – | – | > 100 µM (inactive) | > 100 µM (inactive)
22 | Cc1ccc(NS(=O)(=O)c2cc(C(C)(C)C)ccc2OCCOCCOCCOc2ccc(C(C)(C)C)cc2S(=O)(=O)Nc2ccc(C)cc2)cc1 | – | > 100 µM (inactive) | – | – | – | > 100 µM (inactive) | > 100 µM (inactive) | > 100 µM (inactive) | > 100 µM (inactive)
23 | O=C1C2Cc3ccccc3CN2C(=O)N1CN1CCN(CN2C(=O)C3Cc4ccccc4CN3C2=O)CC1 (stereo unspecified) | > 100 µM (inactive) | > 100 µM (inactive) | – | – | > 100 µM (inactive) | > 100 µM (inactive) | > 100 µM (inactive) | > 100 µM (inactive) | > 100 µM (inactive)
24 | NC(=O)N/N=C(\C(=O)C(=O)Nc1ccc(Cl)c(C(F)(F)F)c1)c1nc2ccc(C(=O)c3ccccc3)cc2nc1O | > 100 µM (inactive) | 68.4 µM (inactive) | 9.62 µM (inactive) | – | – | – | 23.7 µM (inactive) | > 100 µM (inactive) | 76.6 µM (inactive)
25 | C/C(=N\N(C)C)C(CN1CCCCC1)C(c1ccccc1)c1c(O)c2ccccc2oc1=O (stereo unspecified) | > 100 µM (inactive) | > 100 µM (inactive) | 74.1 µM (inactive) | > 100 µM (inactive) | > 100 µM (inactive) | > 100 µM (inactive) | > 100 µM (inactive) | > 100 µM (inactive) | > 100 µM (inactive)
26 | COC12CC(O)=C(C(C)=O)C(=O)C1(C)c1c(OC(C)=O)c(C)c(O)c(C(C)=O)c1O2 (stereo unspecified) | 16.7 µM (inactive) | 21.3 µM (inactive) | 14.8 µM (inactive) | 14.3 µM (inactive) | 21.2 µM (inactive) | – | 5.11 µM (inactive) | 23.2 µM (inactive) | 27.7 µM (inactive)
27 | CC1=C(C(=O)Nc2ccc([N+](=O)[O-])cc2)C(c2cccc([N+](=O)[O-])c2)C(C(=O)Nc2ccc([N+](=O)[O-])cc2)=C(C)N1 | 16.6 µM (inactive) | 8.53 µM (inactive) | 2.87 µM (inactive) | 8.53 µM (inactive) | > 100 µM (inactive) | 9.66 µM (inactive) | > 100 µM (inactive) | 23 µM (inactive) | > 100 µM (inactive)
28 | Oc1cc(-c2c[nH]c3ccccc23)nc2cc3c(cc12)OCO3 | > 100 µM (inactive) | > 100 µM (inactive) | 41.6 µM (inactive) | > 100 µM (inactive) | > 100 µM (inactive) | > 100 µM (inactive) | – | > 100 µM (inactive) | –
29 | O=C(O)CP(=S)(S)c1ccccc1 (stereo unspecified) | > 10 µM (inactive) | > 100 µM (inactive) | > 100 µM (inactive) | > 100 µM (inactive) | – | > 100 µM (inactive) | – | > 100 µM (inactive) | > 100 µM (inactive)
